According to patent US10092584B2 (Achillion Pharmaceuticals, Inc., priority 2015, dated 2018):

target: T1, Human Factor D (Homo sapiens, UniProt P00746); test: Human Factor D assay (Example 8); assay type: biochemical; conditions: Table 3; Human Factor D 80 nM, substrate Z-L-Lys-SBzl; read-out: IC50 (Stars)
T1 construct: purified from human serum; purchased Complement Technology, Inc; host or cells: human serum
Summary of the method: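 Serum-purified human Factor D (80 nM final) was preincubated with test compound at various concentrations for 5 min at room temperature in 50 mM Tris, 1M NaCl, pH 7.5. Z-L-Lys-SBzl and DTNB were then added at 100 μM each. IC50 came from nonlinear regression of reaction rates versus compound concentration.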

T1 sequence (P00746 26-253): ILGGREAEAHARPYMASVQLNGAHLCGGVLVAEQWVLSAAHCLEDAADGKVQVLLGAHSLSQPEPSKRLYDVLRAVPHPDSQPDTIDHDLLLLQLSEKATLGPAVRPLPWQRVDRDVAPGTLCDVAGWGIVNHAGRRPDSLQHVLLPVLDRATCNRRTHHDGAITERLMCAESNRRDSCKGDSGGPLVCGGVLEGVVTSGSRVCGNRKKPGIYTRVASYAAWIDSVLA

Row | Structure (SMILES) | IC50 [µM]
1 | NC(=O)c1nn(CC(=O)N2C[C@H](F)C[C@H]2C(=O)Nc2cccc(-c3ccc4c(c3Cl)NCCN4)c2F)c2ccccc12 [Compound 443, 1-(2-((2S,4R)-2-((3-(5-Chloro-1,2,3,4-tetrahydroquinoxalin-6-yl)-2-fluorophenyl)carbamoyl)-4-fluoropyrrolidin-1-yl)-2-oxoethyl)-1H-indazole-3-carboxamide] | < 1
2 | CC(=O)c1nn(CC(=O)N2C[C@H](F)C[C@H]2C(=O)Nc2cccc(-c3ccc4c(c3Cl)NCCN4)c2F)c2ccccc12 [Compound 445, (2S,4R)-1-(2-(3-Acetyl-1H-indazol-1-yl)acetyl)-N-(3-(5-chloro-1,2,3,4-tetrahydroquinoxalin-6-yl)-2-fluorophenyl)-4-fluoropyrrolidine-2-carboxamide] | < 1
3 | CC(=O)c1nn(CC(=O)N2C[C@H](F)C[C@H]2C(=O)Nc2cccc(-c3ccc4c(c3)CNCC4)c2F)c2ccccc12 [Compound 451, (2S,4R)-1-(2-(3-Acetyl-1H-indazol-1-yl)acetyl)-4-fluoro-N-(2-fluoro-3-(1,2,3,4-tetrahydroisoquinolin-7-yl)phenyl)pyrrolidine-2-carboxamide] | < 1
4 | C[C@@]12C[C@@H](C(=O)Nc3cccc(-c4ccc5nc[nH]c5c4Cl)c3F)N(C(=O)Cn3nc(C(N)=O)c4ccccc43)[C@@H]1C2 [Compound 453, 1-(2-((1R,3S,5R)-3-((3-(7-chloro-1H-benzo[d]imidazol-6-yl)-2-fluorophenyl)car-bamoyl)-5-methyl-2-azabicyclo[3.1.0]hexan-2-yl)-2-oxoethyl)-1H-indazole-3-carboxamide] | < 1
5 | NC(=O)c1nn(CC(=O)N2C[C@H](F)C[C@H]2C(=O)Nc2cccc(-c3ccc4nc[nH]c4c3F)c2F)c2ccccc12 [Compound 456, 1-(2-((2S,4R)-4-fluoro-2-((2-fluoro-3-(7-fluoro-1H-benzo[d]imidazol-6-yl)phenyl)carba-moyl)pyrrolidin-1-yl)-2-oxoethyl)-1H-indazole-3-carboxamide] | < 1
6 | CC(=O)c1nn(CC(=O)N2C[C@H](F)C[C@H]2C(=O)Nc2cccc(-c3cccc4nc[nH]c34)c2F)c2ccccc12 [Compound 457, (2S,4R)-N-(3-(1H-benzo[d]imidazol-7-yl)-2-fluorophenyl)-1-(2-(3-acetyl-1H-indazol-1-yl)acetyl)-4-fluoropyrrolidine-2-carboxamide] | < 1
7 | CC(=O)c1cn(CC(=O)N2C[C@H](F)C[C@H]2C(=O)Nc2cccc(-c3ccc4[nH]cnc4c3Cl)c2F)c2ccccc12 [Compound 460, (2S,4R)-1-(2-(3-acetyl-1H-indol-1-yl)acetyl)-N-(3-(4-chloro-1H-benzo[d]imidazol-5-yl)-2-fluorophenyl)-4-fluoropyrrolidin-2-carboxamide] | < 1

The remaining lines, values ahead:

Row | IC50 [µM] | Structure (SMILES)
8 | < 1 | CC(=O)c1nn(CC(=O)N2C[C@H](F)C[C@H]2C(=O)Nc2cccc(-c3ccc4c(c3)CCCN4)c2F)c2ccccc12 [Compound 449, (2S,4R)-1-(2-(3-Acetyl-1H-indazol-1-yl)acetyl)-4-fluoro-N-(2-fluoro-3-(1,2,3,4-tetrahydroquinolin-6-yl)phenyl)pyrrolidine-2-carboxamide]
9 | < 1 | CC(=O)c1nn(CC(=O)N2C[C@H](F)C[C@H]2C(=O)Nc2cccc(-c3ccc4c(c3)NCCC4)c2F)c2ccccc12 [Compound 450, (2S,4R)-1-(2-(3-Acetyl-1H-indazol-1-yl)acetyl)-4-fluoro-N-(2-fluoro-3-(1,2,3,4-tetrahydroquinolin-7-yl)phenyl)pyrrolidine-2-carboxamide]
10 | < 1 | O=C(NCc1cccc(Cl)c1F)[C@@H]1C[C@@H](F)CN1C(=O)Cn1cc(-c2cnco2)c2ccccc21 [Compound 452, (2S,4R)—N-(3-chloro-2-fluorobenzyl)-4-fluoro-1-(2-(3-(oxazol-5-yl)-1H-indol-1-yl)acetyl)pyrrolidine-2-carboxamide]
11 | < 1 | CC(=O)c1nn(CC(=O)N2[C@@H]3C[C@@H]3C[C@H]2C(=O)Nc2cccc(-c3ccc4nc[nH]c4c3Cl)c2F)c2cnc(C)cc12 [Compound 454, (1R,3S,5R)-2-(2-(3-acetyl-5-methyl-1H-pyrazolo[3,4-c]pyridin-1-yl)acetyl)-N-(3-(7-chloro-1H-benzo[d]imidazol-6-yl)-2-fluorophenyl)-2-azabicyclo[3.1.0] hexane-3-carboxamide]
12 | < 1 | CC(=O)c1nn(CC(=O)N2C[C@H](F)C[C@H]2C(=O)Nc2cccc(-c3ccc4nc[nH]c4c3F)c2F)c2ccccc12 [Compound 455, (2S,4R)-1-(2-(3-acetyl-1H-indazol-1-yl)acetyl)-4-fluoro-N-(2-fluoro-3-(7-fluoro-1H-benzo[d]imidazol-6-yl)phenyl)pyrrolidine-2-carboxamide]
13 | < 1 | NC(=O)c1nn(CC(=O)N2C[C@H](F)C[C@H]2C(=O)Nc2cccc(-c3cc(Cl)c4nc[nH]c4c3)c2F)c2ccccc12 [Compound 458, 1-(2-((2S,4R)-2-(3-(4-chloro-1H-benzo[d]imidazol-6-yl)-2-fluorophenylcarb-amoyl)-4-fluoropyrrolidin-1-yl)-2-oxoethyl)-1H-indazole-3-carboxamide]
14 | < 1 | CC(=O)c1nn(CC(=O)N2C[C@H](F)C[C@H]2C(=O)Nc2cccc(-c3ccc4[nH]cnc4c3Cl)c2F)c2cnccc12 [Compound 459, (2S,4R)-1-(2-(3-acetyl-1H-pyrazolo[3,4-c]pyridin-1-yl)acetyl)-N-(3-(4-chloro-1H-benzo[d]imidazol-5-yl)-2-fluorophenyl)-4-fluoropyrrolidine-2-carboxamide]
15 | < 1 | CC(=O)c1nn(CC(=O)N2C[C@H](F)C[C@H]2C(=O)Nc2cccc(-c3ccc4[nH]cnc4c3Cl)c2F)c2ccccc12 [Compound 461, (2S,4R)-1-(2-(3-acetyl-1H-indazol-1-yl)acetyl)-N-(3-(4-chloro-1H-benzo[d]imidazol-5-yl)-2-fluorophenyl)-4-fluoropyrrolidin-2-carboxamide]
16 | < 1 | CC(=O)c1nn(CC(=O)N2[C@@H]3C[C@@H]3C[C@H]2C(=O)Nc2cccc(-c3ccc4[nH]cnc4c3Cl)c2F)c2ccccc12 [Compound 463, (1R,3S,5R)-2-(2-(3-acetyl-1H-indazol-1-yl)acetyl)-N-(3-(4-chloro-1H-benzo[d]imidazol-5-yl)-2-fluorophenyl)-2-azabicyclo[3.1.0] hexane-3-carboxamide]
